Usually Kd stands for the free concentration of one partner at which half of the binding sites on the other are occupied at equilibrium, for simple one-to-one binding.

Series [1] deals with mTOR. As to the kind of experiment: Intracellular S6 phosphorylation (marker of mTOR inhibition) in engineered T cells. It counts as cell-based, human. As to conditions: live CD8+ T cells, Temra, Tem subsets; cells produced with vs without Compound 63. The procedure:
(§1) CD4+ and CD8+ T cells were isolated by immunoaffinity-based enrichment from leukapheresis samples from human donor subjects. […] The T cells cultured with our without Compound 63 were incubated overnight (approximately 24 hr) at 37° C., and were then transduced in serum-free culture media with our without Compound 63 ([…]) with a lentiviral vector encoding an anti-CD19 CAR. […] Following transduction, the cells were incubated in serum free media without recombinant cytokines (basal media) and with or without Compound 63 (1 mM) and allowed to incubate at about 37.0° C. in an incubator for up to 96 hours after initiation of the stimulation with the anti-CD3/anti-CD28 oligomeric stimulatory reagent (until day 5 of the process). […] The cryofrozen engineered CD4+ and CD8+ T cells were thawed, and T cells were assessed for intracellular S6 phosphorylation, a ribosomal protein and marker of mTOR inhibition, and co-stained for surface expression of CD4 or CD8 and for CCR7 and CD45RA as markers of memory subsets. pS6 expression in live CD8+ T cells by memory subsets was shown by the expression of CCR7 and CD45RA as shown in FIG. 16A. As shown, incubation with Compound 63 decreased the mean fluorescence intensity of stimulated memory T cell subsets, […], indicating an inhibition of mTOR, while having no significant effect on the percentage or total number of viable cells over time.

The subject of series [2] is CD4+ and CD8+ T cells. Briefly: Intracellular cytokines following stimulation with PMA/Ionomycin and a Golgi inhibitor. The series is classed as cell-based, human. As to conditions: engineered CD8+ and CD4+ T cells produced in presence of Compound 63.
Series [3] deals with CD4+ and CD8+ T cells. As to the kind of experiment: Viable cells in engineered T cell composition over the process. It counts as cell-based, human. As to conditions: presence vs absence of compound 63 in the process. As to the method:
as §1

The test system of series [4] is CD4+ and CD8+ T cells. Briefly: Surface expression of CD27 and CCR7 by flow cytometry (phenotypic subset profile). It counts as cell-based, human. As to conditions: thawed. Background: A flow cytometer gives signals particle by particle.
Series [5] concerns CAR-T cells. Briefly: Intracellular caspase expression (marker of apoptosis) in thawed CAR-T cells. To be noted: incubated with vs without compound 63. It counts as cell-based, human.
For series [6], the system named is anti-CD19 CAR T cells. Briefly: Long-term stimulation over 12 days with anti-idiotype antibody beads, expansion and survival. The series is classed as cell-based, human. As to conditions: anti-ID beads, cells produced in presence vs absence of compound 63. The procedure: CD4+ and CD8+ T cells were isolated by immunoaffinity-based enrichment from leukapheresis samples from human donor subjects. At day 1, isolated CD4+ and CD8+ T cells were mixed 1:1 and stimulated with an anti-CD3/anti-CD28 oligomeric stimulatory reagent generated as described in Example 1 in serum-free media supplemented with recombinant IL-2 (100 IU/mL), recombinant IL-7 (600 IU/mL), and recombinant IL-15 (100 IU/mL) with or without 1 μM of 2-(3-hydroxyphenyl)-9-(2-isopropylphenyl)-8-oxo-8,9-dihydro-7H-purine-6-carboxamide (Compound 63). The T cells cultured with our without Compound 63 were incubated overnight (approximately 24 hr) at 37° C., and were then transduced in serum-free culture media with our without Compound 63 ([…]) with a lentiviral vector encoding an anti-CD19 CAR. The CAR contained an scFv antigen-binding domain specific for CD19 (derived from FMC63), a CD28 transmembrane region, a 4-1BB costimulatory signaling region, and a CD3-zeta derived intracellular signaling domain. […]
To further assess the functional activity of the cells, the generated T cell compositions were stimulated long-term over 12 days with beads conjugated with an anti-idiotype (ID) antibody against the anti-CD19 CAR, and expansion and survival of the cells were monitored (FIG. 17F, left panel) and total expansion metric calculated by area under the growth curve (FIG. 17F, right panel, AUC).

Series [7] has as its target Strep-Tactin® (mutein streptavidin, e.g. SEQ ID NO: 4) (Streptomyces avidinii, UniProt P22629, E68V/S69T/V71R). As to conditions: background statement, no experiment described; read-out: KD of binding to Strep-Tactin®; cited from earlier work.

Chain of Strep-Tactin® (mutein streptavidin, e.g. SEQ ID NO: 4) (P22629 other isoform, or with tags, fused parts or gaps E68V/S69T/V71R): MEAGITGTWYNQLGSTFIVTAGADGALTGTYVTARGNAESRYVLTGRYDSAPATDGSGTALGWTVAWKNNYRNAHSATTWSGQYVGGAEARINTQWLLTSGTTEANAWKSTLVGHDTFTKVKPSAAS

In the case of `CC(C)c1ccccc1-n1c(=O)[nH]c2c(C(N)=O)nc(-c3cccc(O)c3)nc21` [Compound 63, 2-(3-hydroxyphenyl)-9-(2-isopropylphenyl)-8-oxo-8,9-dihydro-7H-purine-6-carboxamide], the “mean fluorescence intensity of pS6 in memory T cell subsets” value in series [1] was “decreased”. The “level of intracellular cytokines IL2, IFNg, or TNF” value in series [2] is “substantially improved”. Moreover, in series [3], the percent viable cells entry is given as “did not impact” and the total live cells entry is “did not impact”. The “phenotypic subset profile by CD27 and/or CCR7 expression” value in series [4] is “did not substantially alter”. The intracellular caspase expression entry in series [5] is recorded as “less intracellular caspase expression”. Moreover, the “function (expansion) following long-term CAR-specific stimulation” value in series [6] is reported as “improved function”.
With WSHPQFEK [Strep-Tag® II], the Kd in series [7] was about 1000 nM.
